Results taken from publication PMC8617031, “Development of a BCL-xL and BCL-2 dual degrader with improved anti-leukemic activity,” (Nature Communications, 2021).

Tests used:
[1] = tested on: Flag-BCL-xL WT or mutants; assay: Polyubiquitination assay (Flag IP, HA-Ub blot), BCL-xL; assay type: cell-based, human; conditions: 293T cells, MG132 10 µM pretreatment, 753b 0.1 µM, 5 h
From the text: K16-only, K20-only, and K87-only represent that all the surface lysines on BCL-xL are mutated to arginines except K16, K20, and K87, respectively. Representative immunoblots of Flag-BCL-xL WT and mutants are shown in the top panel. […] K17R and K22R represents that K17 and K22 on BCL-2 are respectively mutated to arginine; K17/22R means both K17 and K22 on BCL-2 are mutated to arginine. Representative immunoblots of Flag-BCL-2 WT and mutants are shown in the top panel. The quantification of the relative Flag-BCL-xL or Flag-BCL-2 protein content in the immunoblots is presented as mean values ± s.e.m. (n = 3 biologically independent experiments) in the bottom panel. […] After 36 h, cells were pre-treated with MG132 (10 µM) for 2 h and then treated with or without 753b (0.1 µM for BCL-xL and 1 uM for BCL-2) for 5 h. The Flag-tagged proteins were immunoprecipitated (IP) and immunoblotted with HA or Flag antibody. The input results are shown in Supplementary Fig. 9. Data are a representative of two independent experiments. Source data are provided as a Source data file.
Proteins were extracted by using IP lysis buffer (Cat. No. 87788, Thermal Fisher Scientific) and IP was performed using Anti-FLAG M2 Magnetic Beads (Cat. No. M8823, Sigma-Aldrich) according to the manufacturer’s protocol. […]

BCL-xL = molecular target: T1, BCL-xL (Homo sapiens, UniProt Q07817); assay: BCL-xL degradation by western blot in human platelets; assay type: cell-based; conditions: Supplementary Fig. 12a
T1 construct: endogenous in cells
Experimental: Cells were collected, washed once with ice-cold phosphate-buffered saline, pH 7.2 (PBS, cat. no. 20012027; Thermo Fisher Scientific) and lysed in RIPA lysis buffer (Cat. No. BP-115DG, Boston Bio Products, Ashland, MA, USA) supplemented with protease and phosphatase inhibitor cocktails (Cat. No. PPC1010, Sigma-Aldrich, St. Louis, MO, USA) through sonication. The samples were centrifuged at 14,000 r.p.m. for 5 min and the supernatants were transferred into a new tube. The protein concentration in the supernatants was determined using the Pierce BCA protein Assay kit (cat. no. 23225, Thermo Fisher Scientific). The protein concentration was normalized, and the samples were reduced in 4× Laemmli’s SDS-sample buffer (cat. no. BP-110R, Boston Bio Products) and denatured at 95 °C for 5 min. […] Following sufficient washing with TBST, the membranes were exposed with chemiluminescent HRP substrate (cat. no. WBKLS0500, MilliporeSigma), and the signal was detected using the ChemiDoc MP Imaging System (Bio-Rad) and quantified using the ImageJ (v1.53a) software from NIH. […]

human platelets = assay: Viability (MTS) of human platelets; assay type: cell-based; conditions: Supplementary Fig. 12b
Experimental: For the viability assays in human platelets, human platelet-rich plasma (PRP) was purchased from Zenbio (cat. no. SER-PRP-SDS). PRP was used for experiments immediately after delivery. PRP was transferred into 50-ml polypropylene tubes, each containing 5 ml acid citrate buffer (cat. no. sc-214744, Santa Cruz Biotechnology). […] After gently mixing the solution, platelets were pelleted by centrifugation at 1200 × g for 10 min. Pelleted platelets were gently washed without disruption in 2 ml HEPES-buffered Tyrode’s solution (10 mM HEPES, 135 mM NaCl, 2.8 mM KCl, 1 mM MgCl2, 2 mM CaCl2, 12 mM NaHCO3, 0.4 mM NaH2PO4, 0.25% BSA and 5.5 mM glucose, pH 7.4; cat. no. PY-921WB, Boston BioProducts) containing 1 µM PGE1 and 0.2 units ml^–1 apyrase. After washing, pellets were slowly resuspended in 10 ml HEPES-buffered Tyrode’s solution containing 1 µM PGE1 and 0.2 units ml–1 apyrase. The number of platelets was counted using a HEMAVET 950FS hematology analyzer (Drew Scientific, Inc.). For viability assays, platelet number was adjusted to 2 × 10^8 per ml in HEPES-buffered Tyrode’s solution containing 1 µM PGE1, 0.2 units ml^–1 apyrase and 10% FBS. […] After 72 h treatment, 200 µl of untreated or treated platelets were plated in each well of 96-well plates, and the viability was measured by MTS assay as described above.

T1 sequence (Q07817 whole entry): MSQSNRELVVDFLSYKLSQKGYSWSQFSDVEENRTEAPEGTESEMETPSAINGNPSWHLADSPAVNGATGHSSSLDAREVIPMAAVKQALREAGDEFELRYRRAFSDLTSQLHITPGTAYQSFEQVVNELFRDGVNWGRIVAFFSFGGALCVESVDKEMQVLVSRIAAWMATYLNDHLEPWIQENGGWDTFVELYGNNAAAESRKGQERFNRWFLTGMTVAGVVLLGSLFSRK

SMILES: Cc1ncsc1-c1ccc([C@H](C)NC(=O)[C@@H]2C[C@@H](O)CN2C(=O)[C@@H](NC(=O)CCCCCCC(=O)N2CCN(C[C@]3(C)CCC(c4ccc(Cl)cc4)=C(CN4CCN(c5ccc(C(=O)NS(=O)(=O)c6ccc(N[C@H](CCN7CCOCC7)CSc7ccccc7)c(S(=O)(=O)C(F)(F)F)c6)cc5)CC4)C3)CC2)C(C)(C)C)cc1 [753b]
- polyubiquitination of BCL-xL WT and mutants (in words) [1]: induces polyubiquitination of WT, K20-only, and K87-only BCL-xL, but not K16-only BCL-xL
- BCL-xL degradation in human platelets (in words) (BCL-xL): failed to induce BCL-xL degradation in human platelets
- toxicity to platelets relative to ABT263 (human platelets): about three-fold less toxic to platelets than ABT263
